Test results reported in article PMC8829089, “The Pseudomonas aeruginosa homeostasis enzyme AlgL clears the periplasmic space of accumulated alginate during polymer biosynthesis” (The Journal of Biological Chemistry, 2022).

Molecular target: T1, AlgL (NHis6-AlgL^28–362) (Pseudomonas aeruginosa, UniProt Q06749)
T1 construct: residues 28-362, signal peptide removed, N-terminal His6 tag (pET28b), expressed in E. coli; one molecule in the asymmetric unit
Test: X-ray crystal structure, […] Å
Format: binding
Details: cocrystallized with 8 mM mannuronate trisaccharide (ManA3); only one sugar monomer seen in density, subsite +1 of active site

T1 sequence (Q06749 28-362): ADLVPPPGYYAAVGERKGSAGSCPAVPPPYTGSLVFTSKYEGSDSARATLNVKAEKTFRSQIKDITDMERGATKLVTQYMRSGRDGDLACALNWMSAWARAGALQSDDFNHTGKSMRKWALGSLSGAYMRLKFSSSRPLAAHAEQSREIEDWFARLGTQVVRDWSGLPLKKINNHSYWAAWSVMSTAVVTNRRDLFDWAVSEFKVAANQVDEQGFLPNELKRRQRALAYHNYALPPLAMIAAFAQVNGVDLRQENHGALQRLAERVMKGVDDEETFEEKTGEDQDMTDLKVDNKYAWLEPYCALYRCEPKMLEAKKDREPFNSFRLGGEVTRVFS

In the case of `O=C(O)[C@H]1OC(O)[C@@H](O)[C@@H](O)[C@@H]1O` (stereo partly shown) [ManA, mannuronate], the “X-ray crystal structure, 1.64 Å” value is reported as “we were only able to detect electron density for a sugar monomer”.
